The record followed here is PubChem BioAssay (NCI).

Holding throughout (assay): NCI-60 cell line screen, 48 h
For experiment [1], the system named is A498 renal.
For experiment [2], the system named is BT-549 breast.
Experiment [3] concerns CAKI-1 renal.
The test system of experiment [4] is HCT-116 colon.
Experiment [5] concerns HCT-15 colon.
In experiment [6] the test system is HOP-62 NSCLC.
Experiment [7] deals with HS 578T breast.
In experiment [8] the test system is M14 melanoma.
Experiment [9] relates to MDA-N.
Experiment [10] relates to MOLT-4 leukemia.
In experiment [11] the test system is NCI-H226 lung.
Experiment [12] deals with RXF 393 renal.
The test system of experiment [13] is SF-539 CNS.
Experiment [14] relates to SK-MEL-2 melanoma.
For experiment [15], the system named is SK-MEL-28 melanoma.
Experiment [16] relates to SK-MEL-5 melanoma.
The test system of experiment [17] is SNB-75 CNS.
For experiment [18], the system named is TK-10 renal.
The subject of experiment [19] is UACC-62 melanoma.
Experiment [20] deals with UO-31 renal.

Molecules are shown by their SMILES.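 How tested: cells in 96-well plates exposed to compound for 48 hours at five concentrations. The concentration for full growth arrest is given as TGI.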

For `O=C(/C=C/c1ccc(OCc2cccc(Cl)c2)cc1)NO`, the TGI in [1] is 27.8 µM; in experiment [2] it was 80.7 µM; in experiment [3], 34.2 µM; in experiment [4], 25.8 µM; in experiment [5], 20.8 µM; in experiment [6], greater than 100 µM. For the same molecule, the TGI in experiment [7] is greater than 100 µM; in experiment [8] it was greater than 100 µM; in experiment [9] it was 44.5 µM; in experiment [10], 18 µM; in experiment [11] it was 35.6 µM; in experiment [12], 42.4 µM. Besides, the TGI was greater than 100 µM in experiment [13]; 53.7 µM in [14]; greater than 100 µM in [15]; 45.7 µM in experiment [16]; greater than 100 µM in [17]; 67.1 µM in experiment [18]. The TGI was determined as 27.9 µM in [19] and 18.7 µM in experiment [20].
`O=c1cc(CO)oc(C(O)c2ccccc2)c1O` (stereo not given): the TGI in [1], in [2], in [3], in experiment [4], in [5] and in experiment [6] was greater than 100 µM in each case. The TGI in [7], in experiment [8], in experiment [9], in experiment [10], in experiment [11] and in [12] was greater than 100 µM throughout. Moreover, the TGI in [13], in [14], in [15], in experiment [16], in experiment [17] and in experiment [18] was greater than 100 µM throughout. For the same molecule, the TGI in experiment [19] and in experiment [20] was greater than 100 µM throughout.
